{"source": "patent US20100184675A1", "about": "“USE OF GLUCAGON (1-29) ALONE OR IN COMBINATION WITH NEUROPEPTIDE W30 AS A THERAPEUTIC AGENT” (priority 2007, published 2010)", "key": {"HCMV strain AD169": {"test_system": "HCMV strain AD169", "test": "HCMV plaque formation assay in MRC-5 cells", "conditions": "peptides 10 micrograms per ml, 7-10 days"}, "HUVEC": {"test_system": "HUVEC", "test": "Endothelial tube formation assay", "format": "cell-based, human", "conditions": "10 micrograms per ml; 20 hours", "method": "The endothelial tube formation assay is based on the ability of endothelial cells to form three-dimensional capillary-like tubular structures when cultured on a gel of basement membrane extract. […] Pre-labeled HUVEC with Calcein AM were seeded in a 96-well culture plate coated with extracellular metrix (Chemicon international Cat. […] Positive control was vehicle only. […] Duplicate wells for each treatment were photographed and quantitatevily analyzed for an average tubule length using image analysis software ImageProPlus. Raw data were expressed as average tubule lengths in pixels ±standard deviation. Statistic p values were computed using the Student's t-test."}, "[1]": {"test_system": "hepatitis B virus (HBV) ayw strain", "test": "HBV experimental assay system (HepG2-2.2.15, secreted HBV DNA by TaqMan PCR)", "format": "cell-based", "conditions": "10 micrograms per ml; 6 days; combination 0.95 mole peptide 1 and 1.05 mole peptide 2", "method": "HepG2-2.2.15 cells were plated in 96-well microtiter plates. After 16-24 hours the confluent monolayer of HepG2-2.2.15 cells was washed and the medium was replaced with complete medium containing test peptides—10 micrograms per ml—in duplicate. Lamivudine (3TC) was used as the positive control, while media alone was added to the cells as a negative control (virus control). Three days later the culture medium was replaced with fresh medium containing the peptides. Six days following the initial administration of the peptides, the cell culture supernatants was collected, treated with pronase and DNAse and then used in a real-time quantitative TaqMan PCR assay. The PCR-amplified HBV DNA was detected in real-time by monitoring increases in fluorescence signals that result from the exonucleolytic degradation of a quenched fluorescence probe molecule that hybridizes to the amplified HBV DNA. For each PCR amplification, a standard curve was simultaneously generated using dilutions of purified HBV DNA. Antiviral activity was calculated from the reduction in HBV DNA levels (% virus control). A novel dye uptake assay was then employed to measure cell viability, which is used to calculate toxicity (% cell control)."}, "murine spleen cells": {"test_system": "murine spleen cells", "test": "Th1/Th2 cytokine profiling assay (Ovalbumin-restimulated spleen cells)", "format": "cell-based, Balb/c mice", "conditions": "10 micrograms per ml; 72 hours; combination 0.95 mole peptide 1 and 1.05 mole peptide 2", "method": "On day 50, spleens of the mice were harvested (3 weeks after last boost with Ovalbumin). Cells were cultured (2×10^5/well in triplicate) and incubated with culture medium or test peptides—10 micrograms per ml—for 30 min. Thereafter, additional Ovalbumin was added to the cells at 10 micrograms/ml for in vitro restimulation of the cells. 72 hours later, cell supernatants were harvested and assayed using the Becton Dickinson Mouse Th1/Th2 Cytokine CBA Kit."}, "[2]": {"test_system": "Primary Human endothelial cells (HUVEC)", "test": "Endothelial cell migration assay", "format": "cell-based", "conditions": "10 micrograms per ml; 22 hours"}, "HIV-1IIIB": {"test_system": "HIV-1IIIB", "test": "HIV-1 antiviral assay in CEM-SS cells", "conditions": "peptides 10 micrograms per ml, 6 days post-infection"}}, "note": "Ends that are not written are not given here.", "data": [{"compound": "Nc1nc(O)c2ncn(COC(CO)CO)c2n1", "note": "[Ganciclovir, reference compound]", "values": [{"measurement": "inhibition of HCMV plaque formation as compared to the virus control", "setting": "HCMV strain AD169", "result": "expected levels of antiviral activity"}]}, {"compound": "Trp-Tyr-Lys-His-Val-Ala-Ser-Pro-Arg-Tyr-His-Thr-Val-Gly-Arg-Ala-Ala-Gly-Leu-Leu-Met-Gly-Leu-Arg-Arg-Ser-Pro-Tyr-Leu-Trp-OH (WYKHVASPRYHTVGRAAGLLMGLRRSPYLW-OH) [Peptide 2, Neuropeptide W-30, commercially available known peptide]", "values": [{"measurement": "inhibition of the tube formation of human endothelial cells", "setting": "HUVEC", "result": 16, "unit": "%"}, {"measurement": "inhibition of HBV replication as compared to the virus control infection", "setting": "[1]", "result": 10.7, "unit": "%"}, {"measurement": "change of the production of IFN-γ (figure = decreased by)", "setting": "murine spleen cells", "result": 25.5, "unit": "%"}, {"measurement": "change of the production of IL-2 (figures = increased by)", "setting": "murine spleen cells", "result": 82.1, "unit": "%"}, {"measurement": "change of the production of IL-4 (figure = induced by)", "setting": "murine spleen cells", "result": "did not significantly change"}, {"measurement": "change of the production of IL-5 (figures = decreased by)", "setting": "murine spleen cells", "result": 29.3, "unit": "%"}, {"measurement": "change of the production of TNF-alpha", "setting": "murine spleen cells", "result": "did not significantly change"}, {"measurement": "inhibition of HCMV plaque formation as compared to the virus control", "setting": "HCMV strain AD169", "result": "did not inhibit"}, {"measurement": "inhibition of the migration of human endothelial cells", "setting": "[2]", "result": 17, "unit": "%"}]}, {"compound": "Cc1cn([C@H]2C[C@H](N=[N+]=[N-])[C@@H](CO)O2)c(=O)[nH]c1=O", "note": "[AZT]", "values": [{"measurement": "inhibition of HIV-1 activity on tested T-cells", "setting": "HIV-1IIIB", "result": "expected levels of antiviral activity"}]}, {"compound": "CC(C)(C)NC(=O)[C@@H]1CN(Cc2cccnc2)CCN1C[C@@H](O)C[C@@H](Cc1ccccc1)C(=O)N[C@H]1c2ccccc2C[C@H]1O", "note": "[indinavir]", "values": [{"measurement": "inhibition of HIV-1 activity on tested T-cells", "setting": "HIV-1IIIB", "result": "expected levels of antiviral activity"}]}]}
